According to patent publication EP0436598B1, “CELL SORTING TECHNIQUE AND APPLICATIONS THEREOF” (CETUS ONCOLOGY CORPORATION, priority 1988, dated 1990):

Key:
520C9 cells = assay: MTT cell growth and viability assay after fluorescent dye labeling; format: cell-based, murine; conditions: labeled 20 minutes with hydroethidine 10 µg/ml at room temperature, washed, cultured three days in dye free medium; Figure 1
Excerpt: (§1) The effect of fluorescent dyes on cell viability can be measured using techniques well known to those skilled in the art. A most useful technique is described by Mosmann, T., J. of Immunol. Methods, 65:55 (1983) which measures cell viability as a function of cell number. Thus, the effect of fluorescent dyes on both cell viability and cell number can be measured simultaneously. The assay is based on the conversion of colorless tetrazolium salts by mitochrondrial dehydrogenase enzymes to a detectable colored product. A favored tetrazolium salt is MTT, or (3-(4,5- dimethylthylthiazol-2-yl)-2,5- diphenyl tetrazolium bromide).
(§2) Cell growth and viability was determined using the MTT assay as described by Mosmann, T., above. […] Each of the above cell lines was tested, and the results are shown in Figures 1, and 2 for 520C9 and 3G8 respectively. For both cell lines the assay was linear at least up to 10⁴ cells/well.
(§3) Next, the same cell lines were labeled in the presence or absence of either rhodamine 123 or hydroethidine, and subsequently cultured for three days during which cell number was measured. Cells were labeled in the presence of 0.5 µg/ml rhodamine 123 plus 10 µM verapamil, or 5 or 10 µg/ml hydroethidine. […]

3G8 cells = assay: as above; format: cell-based, murine; conditions: hydroethidine at 10 µg/ml, Figure 2
Excerpt: as §1, §2, §3

CCN1c2cc(N)ccc2-c2ccc(N)cc2C1c1ccccc1 (stereo not drawn) [hydroethidine]
growth rate and cell numbers of 520C9 cells compared to cells grown in medium lacking the compounds (520C9 cells): virtually identical
inhibition of 3G8 growth (3G8 cells; labeled 20 minutes, cultured three days): does inhibit
start of inhibition of 3G8 growth (3G8 cells): about 24 hours
